Assays:
Eimeria tenella = assay: Minimum effective concentration in feed to protect chickens against infections caused by Eimeria tenella; assay type: functional
[1] = Plasma half-life in 2 weeks-old chickens; assay type: ADME, organism-based, Gallus gallus; conditions: chicken
[2] = Plasma half-life in 6-8 weeks old broiler chickens; assay type: ADME, organism-based, Gallus gallus; conditions: chicken

half-life [1] [h] | half-life [2] [h] | Structure (SMILES) | MEC (Eimeria tenella) [p.p.m.]
– | – | COc1cc(-n2ncc(=O)[nH]c2=O)ccc1S(=O)(=O)c1ccc(Cl)cc1 | >125
– | – | O=c1cnn(-c2cc(Br)c(Sc3ccc([N+](=O)[O-])cc3)c(Br)c2)c(=O)[nH]1 | 8
– | – | O=c1cnn(-c2ccc(S(=O)(=O)c3ccc([N+](=O)[O-])cc3)cc2)c(=O)[nH]1 | >250
– | – | O=c1cnn(-c2cc(Cl)c(Sc3ccccc3)c(Cl)c2)c(=O)[nH]1 | 8
10 | 14.5 | Cc1cc(-n2ncc(=O)[nH]c2=O)ccc1S(=O)(=O)c1ccc(Cl)cc1 | 2
– | – | O=c1cnn(-c2ccc(Sc3ccc(Br)cc3)c(Cl)c2)c(=O)[nH]1 | 2
– | – | Cc1cc(-n2ncc(=O)[nH]c2=O)ccc1Sc1ccc(Cl)cc1 | 2
– | 16 | Cc1cc(-n2ncc(=O)[nH]c2=O)cc(C)c1Sc1ccc(Cl)cc1 [TIAZURIL] | 0.5
– | – | Cc1cc(-n2ncc(=O)[nH]c2=O)ccc1[S+]([O-])c1ccc(Cl)cc1 (stereo not given) | 4
– | – | Cc1ccc(S(=O)(=O)c2ccc(-n3ncc(=O)[nH]c3=O)cc2)cc1 | 250
– | – | CC(C)(C)c1ccc(Sc2ccc(-n3ncc(=O)[nH]c3=O)cc2Cl)cc1 | >60
– | – | Cc1cc(-n2ncc(=O)[nH]c2=O)ccc1S(=O)(=O)c1ccc(Br)cc1 | 15
– | 47 | O=c1cnn(-c2cc(Cl)c(Sc3ccc(Cl)cc3)c(Cl)c2)c(=O)[nH]1 | 0.25
– | – | Cc1cc(-n2ncc(=O)[nH]c2=O)cc(C)c1[S+]([O-])c1ccc(Cl)cc1 (stereo not given) | 1
– | – | O=c1cnn(-c2ccc(S(=O)(=O)c3ccccc3)cc2)c(=O)[nH]1 | 30
19 | – | O=c1cnn(-c2ccc(S(=O)(=O)c3ccc(Br)cc3)cc2)c(=O)[nH]1 | 8
– | – | O=c1cnn(-c2ccc(Sc3ccc([N+](=O)[O-])cc3)cc2)c(=O)[nH]1 | 30
– | 38 | O=c1cnn(-c2ccc(Sc3ccc(Cl)cc3)c(Cl)c2)c(=O)[nH]1 | 2
– | – | Cc1cc(-n2ncc(=O)[nH]c2=O)cc(C)c1Sc1ccc(I)cc1 | 15

half-life [1] [h] | half-life [2] [h] | Structure (SMILES) | MEC (Eimeria tenella) [p.p.m.]
– | – | CSc1c(Cl)cc(-n2ncc(=O)[nH]c2=O)cc1Cl | 30
– | – | O=c1cnn(-c2ccc(S(=O)(=O)Cc3ccc(Cl)cc3)cc2)c(=O)[nH]1 | 250
– | – | CCc1cc(-n2ncc(=O)[nH]c2=O)cc(C)c1Sc1ccc(Cl)cc1 | 60
– | – | CC(c1ccccc1)S(=O)(=O)c1ccc(-n2ncc(=O)[nH]c2=O)cc1 (stereo not given) | >125
– | – | O=c1cnn(-c2ccc(S(=O)(=O)Cc3ccccc3)cc2)c(=O)[nH]1 | >125
– | 26 | Cc1cc(-n2ncc(=O)[nH]c2=O)cc(Cl)c1S(=O)(=O)c1ccc(Cl)cc1 | 15
– | – | C[S+]([O-])c1c(Cl)cc(-n2ncc(=O)[nH]c2=O)cc1Cl (stereo not given) | >125
– | – | O=c1cnn(-c2cc(Cl)c(S(=O)(=O)c3ccc(Cl)cc3)c(Cl)c2)c(=O)[nH]1 | 0.5
– | – | O=c1cnn(-c2ccc(S(=O)(=O)c3ccc(Cl)cc3)cc2)c(=O)[nH]1 | 4
– | – | O=c1cnn(-c2ccc(S(=O)(=O)c3ccc(Cl)cc3)c(Cl)c2)c(=O)[nH]1 | 2
– | – | CS(=O)(=O)c1c(Cl)cc(-n2ncc(=O)[nH]c2=O)cc1Cl | >125
– | – | O=c1cnn(-c2ccc(Sc3ccc(Cl)cc3)c([N+](=O)[O-])c2)c(=O)[nH]1 | 60
– | – | Cc1ccccc1S(=O)(=O)c1ccc(-n2ncc(=O)[nH]c2=O)cc1 | >125
– | – | O=c1cnn(-c2ccc(Sc3ccc(Cl)cc3)cc2)c(=O)[nH]1 | 4
– | – | CC(C)(C)c1ccc(S(=O)(=O)c2ccc(-n3ncc(=O)[nH]c3=O)cc2)cc1 | >250
– | – | Cc1cc(-n2ncc(=O)[nH]c2=O)cc(Cl)c1Sc1ccc(Cl)cc1 | 0.25
– | – | O=c1cnn(-c2cc(Cl)c(Sc3ccc(S(=O)(=O)N4CCOCC4)cc3)c(Cl)c2)c(=O)[nH]1 | >60
– | – | Cc1cc(-n2ncc(=O)[nH]c2=O)cc(C)c1S(=O)(=O)c1ccc(Cl)cc1 | 1
– | – | O=c1cnn(-c2ccc(Sc3ccc4ccccc4c3)c(Cl)c2)c(=O)[nH]1 | 125
